pIC50: −log10 of the molar value. “And” between values parts separate entries of the source, which are not always exact repeats. Identical values can stand only once.
What was measured:
[1] = test system: A2058 melanoma cells; test: Cell viability assay (MTS) after miRNA transfection, with or without drug; Bliss synergy analysis; details: for EObs: observed fractional inhibition of the combination; for EObs/EBliss: >1 = synergistic; for EBliss: fractional inhibition expected if exactly additive; for cell viability, combination of miR-7-5p and drug compared to miR-NC: miR-7-5p 5 nM, suboptimal dose of drug (below the IC50) added 3 days post-transfection, 4 further days; for synergy of combination with miR-7-5p (Bliss additivism model): observed fractional inhibition greater than calculated additive inhibition
Description: (§5) Cells were seeded in 96-well plates at a density of 2.5×10^3 cells per well and transfected with miRNA precursor molecules as above. Cell viability was measured 5 days after transfection using CellTitre 96 Aqueous One Solution Cell Proliferation Assay Kit (MTS assay) and a FLUOstar OPTIMA microplate reader. For synergy analysis between drugs and miR-7-5p, cells were plated as above and drug or DMSO was added 3 days after transfection with miR-7-5p or miR-NC for 4 days, at which time cell viability was measured (7 days after transfection).
(§6) Statistical significance was calculated using Student's t test (one-tailed, unpaired) and the level of significance was set at p<0.05. Drug sensitivity (IC50) was calculated using GraphPad Software (GraphPad Prism, version 5.04). The Bliss additivism model was used for synergy analysis. […] Here, Ebliss is the fractional inhibition expected if the combination of miR-7-5p and drug B was exactly additive. If the experimentally measured fractional inhibition is greater than Ebliss, the combination is synergistic.

[2] = test system: melanoma cell lines (SK-MEL-28, WM266-4, MM96L and A2058); test: Drug sensitivity assay (cell viability after 4 days of drug); type: cell-based; details: range over the melanoma cell lines
[3] = test system: SK-MEL-28 melanoma cells; test: Cell viability assay (MTS) after miRNA transfection, with or without drug; Bliss synergy analysis; details: for EObs: observed fractional inhibition of the combination; for EObs/EBliss: >1 = synergistic; for EBliss: fractional inhibition expected if exactly additive
Description: as §5, §6

[4] = test system: MM96L melanoma cells; test: as above; details: for EObs: observed fractional inhibition of the combination
Description: as §5, §6

[5] = test system: WM266-4 melanoma cells; test: as above; details: for EObs: observed fractional inhibition of the combination
Description: as §5, §6

[6] = test system: A2058 melanoma cells; test: Drug sensitivity assay (cell viability after 4 days of drug); type: cell-based; details: Homo sapiens, 96 h, A2058 (wild type p53)
[7] = test system: WM266-4 melanoma cells; test: as above; type: cell-based; details: Homo sapiens, WM 266-4, 96 h, WM266-4 (wild type p53)
[8] = test system: ERK 1/2; test: IGF-1-induced activation of ERK 1/2 signaling under NVP-AEW541 (data not shown); type: cell-based
[9] = test system: Akt; test: IGF-1-induced activation of Akt signaling under NVP-AEW541 (data not shown); type: cell-based
[10] = test system: breast cancer cell line MCF-7; test: Drug sensitivity assay (cell viability after 4 days of drug); type: cell-based; details: MCF-7 (positive control)
[11] = test system: A375 melanoma cells; test: xCELLigence real-time cell migration assay; type: cell-based; details: further study, 20-25 hour period
From the text: (§1) Cell migration and invasion was monitored with a Real-Time Cell Analyser dual-plate (RTCA DP) xCELLigence System (Roche Applied Science; Mannheim, Germany). This instrument employs cellular migration plates (CIM-plate 16) which contain microelectronic sensors on the underside of an 8 μm microporous polyethylene terephthalate (PET) membrane of a Boyden-like upper chamber and a lower chamber containing media or chemoattractant. As cells migrate or invade from the upper chamber to the lower chamber they interact with the sensors causing an increase in electrical impedance. Changes in cell impedance over time relates to a change in the number of cells interacting with the sensors, allowing real-time measurement of cell migration as a cell index value. […] After 48 h incubation cells were trypsinised, resuspended in serum free media and seeded into the upper chamber of CIM-plates. The lower chambers were filled with media containing 10% FBS (chemoattractant) or serum free media as a control. Migration was monitored over a 24 hour period with impedance measurements every 15 min. For invasion assays, the CIM-plates were coated with Matrigel (BD Biosciences; diluted at a ratio of 1:20 in serum free medium) approximately 4 hours prior to seeding cells.

[12] = test system: WM266-4 melanoma cells; test: xCELLigence real-time cell migration assay; type: cell-based
From the text: as §1

[13] = test system: A2058 melanoma cells; test: xCELLigence real-time cell migration assay; type: cell-based
From the text: as §1

[14] = test system: 1205Lu melanoma cells; test: xCELLigence real-time cell migration assay; type: cell-based; details: further study, 20-25 hour period
From the text: as §1

[15] = test system: IRS-2; test: Immunoblotting after transfection of melanoma cells; type: cell-based
Description: (§2) Optimal cell numbers were transfected using Lipofectamine 2000 (Invitrogen) with miR-7-5p (SEQ ID NO: 1; synthesised by Ambion) or miR-NC precursor molecules (hereinafter “miR-NC”; Ambion AM17110) at final concentrations ranging from 1-30 nM. For siRNA transfections, Silencer Select siRNAs (Invitrogen) Negative Control No. 1 (si-NC; 4390843), si-IRS-2 #1 (s16486), si-IRS-2 #2 (s16487) were transfected using Lipofectamine 2000 (Invitrogen) according to the manufacturer's protocol. Cells were harvested 24 hours later for RNA or 2-3 days after transfection for protein extraction.
(§3) Protein was harvested with Cytoplasmic Extract Buffer (CEB)-containing PhosSTOP phosphatase inhibitors (Roche; New South Wales, Australia) and Complete EDTA-free protease inhibitors (Roche). Cell lysates were frozen at −80° C. overnight, cleared by centrifugation at 13,000×g for 5 min, and supernatants collected. Total protein concentrations were determined by Bio-Rad protein assay (Bio-Rad; New South Wales, Australia) as per manufacturer's instructions and using a FLUOstar OPTIMA microplate reader.
(§4) Fifteen μg of total protein samples were resolved on NuPAGE NO VEX 4-12% Bis-Tris gels (Invitrogen) and transferred to polyvinylidene fluoride (PVDF) western blotting membranes (Roche). The blots were blocked for 1 hour with Odyssey Blocking Buffer (Millennium Science, Victoria, Australia) and incubated overnight at 4° C. with anti-IGF1R, anti-phospho-IGF1R, anti-IRS-1, anti-IRS-2, anti-phospo-IRS-2, anti-ERK 1/2, anti-phospho-ERK 1/2, anti-Akt, anti-phospho-Akt (Ser-473), anti-PAK1 (all from Cell Signaling Technology, Beverly, Mass.), or anti-FAK (Santa Cruz Biotechnology), anti-phospho-IRS-2 (Ser-731; Abeam, Cambridge, Mass.), or anti-β-actin (Abcam), followed by incubation with infrared-conjugated secondary antibodies for 1 hour at room temperature. The membranes were scanned with an Odyssey SA scanner to visualize protein expression (LICOR Biosciences, Lincoln, Nebr.).

[16] = test system: P-ERK 1/2; test: as above; type: cell-based; details: A2058; 15 nM, 3 days post-transfection
Description: as §2, §3, §4

[17] = test system: PAK1; test: as above; type: cell-based
Description: as §2, §3, §4

[18] = test system: P-IRS-2; test: as above; type: cell-based
Description: as §2, §3, §4

[19] = test system: IGF1R; test: as above; type: cell-based; details: melanoma cell lines; 15 nM, 3 days post-transfection, vs miR-NC
Description: as §2, §3, §4

[20] = test system: P-Akt; test: as above; type: cell-based; details: SK-MEL-28, WM266-4 and MM96L; 15 nM, 3 days post-transfection
Description: as §2, §3, §4

[21] = test system: IRS-1; test: as above; type: cell-based; details: 15 nM, 3 days post-transfection
Description: as §2, §3, §4

[22] = test system: P-IGF1R; test: as above; type: cell-based; details: 15 nM, 3 days post-transfection
Description: as §2, §3, §4

[23] = test system: FAK; test: as above; type: cell-based; details: WM266-4 and A2058; 30 nM, protein harvested at time of migration assay (48 hours)
Description: as §2, §3, §4

[24] = test system: A375 melanoma cells; test: xCELLigence real-time cell invasion assay (Matrigel); type: cell-based; details: further study, 20-25 hour period
From the text: as §1

[25] = test system: WM266-4 melanoma cells; test: as above; type: cell-based; details: further study, 20-25 hour period
From the text: as §1

[26] = test system: A2058 melanoma cells; test: as above; type: cell-based; details: further study, 20-25 hour period
From the text: as §1

[27] = test system: 1205Lu melanoma cells; test: as above; type: cell-based; details: further study, 20-25 hour period
From the text: as §1

[28] = test system: IRS-2 mRNA; test: RT-qPCR of IRS-2 mRNA after transfection; type: cell-based; details: WM266-4 and A2058; 24 hours after transfection, normalised to GAPDH, vs miR-NC
Description: as §2

[29] = test system: melanoma cell lines; test: Cell viability assay (MTS) after miRNA transfection; type: cell-based; details: melanoma cells
Description: Cells were seeded in 96-well plates at a density of 2.5×10^3 cells per well and transfected with miRNA precursor molecules as above. Cell viability was measured 5 days after transfection using CellTitre 96 Aqueous One Solution Cell Proliferation Assay Kit (MTS assay) and a FLUOstar OPTIMA microplate reader.

[30] = [miR-7-5p] 5 nM + [drug] 100 nM
[31] = [miR-7-5p] 5 nM + [drug] 150 μM
[32] = [miR-7-5p] 5 nM + [drug] 5 μM, >1 = synergistic
[33] = [miR-7-5p] 5 nM + [drug] 5 μM, fractional inhibition expected if exactly additive
[34] = further study, 20-25 hour period
[35] = MTS assay 5 days post-transfection
[36] = WM266-4 and A2058, 30 nM, protein harvested at time of migration assay (48 hours)
[37] = WM266-4 and A2058, 72 hours after transfection, vs miR-NC

CCCS(=O)(=O)Nc1ccc(F)c(C(=O)c2c[nH]c3ncc(-c4ccc(Cl)cc4)cc23)c1F [PLX4032, vemurafenib]
EObs [1, 30]: 0.855 and 0.853 and 0.790
pIC50 ([2]; 96 h): 6.64 to 7.10
EObs ([3]; [miR-7-5p] 5 nM + [drug] 50 nM): 0.661
EObs [3, 30]: 0.773
EObs ([4]; [miR-7-5p] 2.5 nM^ + [drug] 50 nM): 0.972 and 0.803 and 0.547

COc1cc([C@@H]2c3cc4c(cc3[C@H](O)[C@H]3COC(=O)[C@@H]23)OCO4)cc(OC)c1OC [PPP, picropodophyllin]
EObs/EBliss [1, 30]: 1.48 and 1.03 and 1.18
EBliss [1, 30]: 0.447 and 0.684 and 0.420
EObs [1, 30]: 0.663 and 0.704 and 0.496
cell viability, combination of miR-7-5p and drug compared to miR-NC [1]: significant reduction
synergy of combination with miR-7-5p (Bliss additivism model) [1]: synergistic
pIC50 ([2]; 96 h): 6.52 to 6.82
EObs/EBliss [3, 30]: 1.80 and 1.30
EBliss [3, 30]: 0.292 and 0.391
EObs [3, 30]: 0.526 and 0.508

Cn1nnc2c(C(N)=O)ncn2c1=O [TMZ, temozolomide]
EObs ([5]; [miR-7-5p] 5 nM + [drug] 50 μM): 0.748 and 0.732
EObs ([1]; [miR-7-5p] 5 nM + [drug] 50 μM): 0.680
EObs [1, 31]: 0.811 and 0.633
pIC50 [6]: 3.78
pIC50 [7]: 4.14
EObs [4, 31]: 0.747
EObs ([4]; [miR-7-5p] 5 nM + [drug] 500 μM): 0.864 and 0.878

Nc1ncnc2c1c(-c1cccc(OCc3ccccc3)c1)cn2C1CC(CN2CCC2)C1 (stereo not shown) [NVP-AEW541]
EObs/EBliss [5, 32]: 1.06
EBliss [5, 33]: 0.715
EObs ([5]; [miR-7-5p] 5 nM + [drug] 5 μM): 0.757
EObs/EBliss ([1]; [miR-7-5p] 5 nM + [drug] 5 μM): 1.10 and 1.20
EBliss ([1]; [miR-7-5p] 5 nM + [drug] 5 μM): 0.769 and 0.720
EObs ([1]; [miR-7-5p] 5 nM + [drug] 5 μM): 0.846 and 0.866
cell viability, combination of miR-7-5p and drug compared to miR-NC [1]: significant reduction
synergy of combination with miR-7-5p (Bliss additivism model) [1]: synergistic
IGF-1-induced activation of ERK 1/2 signaling pathway ([8]; MCF-7 breast cancer cells): attenuated
ERK 1/2 activity (IGF-1-induced) ([8]; melanoma cell lines): persistence of ERK 1/2 activity
IGF-1-induced activation of Akt signaling pathway ([9]; MCF-7 breast cancer cells): attenuated
Akt activity (IGF-1-induced) ([9]; melanoma cell lines): abrogated
pIC50 [10]: 5.82
pIC50 [2]: 4.60 to 5.08
EObs/EBliss ([3]; [miR-7-5p] 5 nM + [drug] 5 μM): 1.24 and 1.17
EBliss ([3]; [miR-7-5p] 5 nM + [drug] 5 μM): 0.474 and 0.265
EObs ([3]; [miR-7-5p] 5 nM + [drug] 5 μM): 0.588 and 0.309
EObs/EBliss [4, 32]: 1.06
EBliss [4, 33]: 0.515
EObs ([4]; [miR-7-5p] 5 nM + [drug] 5 μM): 0.547

miR-7-5p: Synthetic miRNA precursor molecules corresponding to human miR-7-5p (Ambion, PM10047); SEQ ID NO: 1 (UGGAAGACUAGUGAUUUUGUUGU; synthetic precursor duplex form, further chemistry not given here; listed as Homo sapiens)
rate of cell migration compared with miR-NC [11]: significantly reduced, or even blocked
cell migration compared with miR-NC ([12]; 30 nM, seeded 48 hours after transfection, monitored 24 hours, data not shown): significantly inhibited
rate of cell migration compared with miR-NC [12, 34]: significantly reduced, or even blocked
cell migration compared with miR-NC ([13]; 30 nM, seeded 48 hours after transfection, monitored 24 hours): significantly inhibited
rate of cell migration compared with miR-NC [13, 34]: significantly reduced, or even blocked
rate of cell migration compared with miR-NC [14]: significantly reduced, or even blocked
cell viability compared with miR-NC ([5]; MTS assay, data not shown): significantly reduced
cell viability compared with miR-NC [1, 35]: significantly reduced
IRS-2 expression ([15]; A2058, 15 nM, 3 days post-transfection): reduced
IRS-2 expression [15, 36]: reduction
expression of IRS-2 protein [15, 37]: reduced
P-ERK 1/2 [16]: downregulated
protein level of PAK1 ([17]; SK-MEL-28, WM266-4, MM96L and A2058, 15 nM, 3 days post-transfection, vs miR-NC): reductions
PAK1 expression [17, 36]: reduction
IRS-2 phosphorylation ([18]; SK-MEL-28, 15 nM, 3 days post-transfection): reduced
active form of IRS-2 (P-IRS-2) [18, 37]: reduced
IGF1R expression [19]: No change
P-Akt [20]: downregulated
IRS-1 expression ([21]; A2058): decrease
IRS-1 expression ([21]; SK-MEL-28 and WM266-4): modest increase
IGF1R phosphorylation ([22]; A2058): decreased
IGF1R phosphorylation ([22]; MM96L): increased
IGF1R phosphorylation ([22]; SK-MEL-28): did not change
FAK expression [23]: reduction
rate of cell invasion compared with miR-NC [24]: significantly reduced, or even blocked
rate of cell invasion compared with miR-NC [25]: significantly reduced, or even blocked
rate of cell invasion compared with miR-NC [26]: significantly reduced, or even blocked
rate of cell invasion compared with miR-NC [27]: significantly reduced, or even blocked
levels of IRS-2 mRNA [28]: significantly decreased
final miR-7-5p concentration at which viability was significantly reduced [29]: 1 nM
cell viability compared with miR-NC ([3]; MTS assay, data not shown): significantly reduced
cell viability compared with miR-NC [4, 35]: significantly reduced

Source: patent US9795626B2, “Cancer therapy using miRNAs” (THE UNIVERSITY OF WESTERN AUSTRALIA, priority 2012, dated 2017)
